According to paper PMC7734625, “Stabilization Strategies for Linear Minigastrin Analogues: Further Improvements via the Inclusion of Proline into the Peptide Sequence” (Journal of Medicinal Chemistry, 2020):
Where two headings read alike, the source gives them in different places. Non-standard residues stand in square brackets, D forms with d. Residues, ends and D or L forms follow the SMILES beside them. *: point of attachment. DOTA = O=C(O)CN1CCN(CC(=O)O)CCN(CC(=O)*)CCN(CC(=O)O)CC1; 1Nal = N[C@@H](Cc1cccc2ccccc12)C(=O)O; NMeNle = CCCC[C@H](NC)C(=O)O

Legend:
[1] = log D, octanol/PBS distribution; format: physicochemical; settings: 111In-labeled peptide
[2] = protein binding in human serum (Sephadex G-50 size-exclusion chromatography); format: in vitro ADME
Protocol: The protein binding in human serum (500 pmol/mL, n = 2) was assessed by Sephadex G-50 size-exclusion chromatography (GE Healthcare Illustra, Little Chalfont, U.K.) for up to 24 h.

[3] = in vivo stability studies in BALB/c mice; settings: i.v.
Protocol: Metabolic studies evaluating the stability of the radioligands were carried out in 7- to 8-week-old female BALB/c mice. With the ^111In-labeled peptide derivatives, the studies were performed for the time point of 10 min p.i. (n = 2). With the ^177Lu-labeled peptide derivatives, additional studies were also carried out for the time point of 30 min and 60 min p.i. (n = 1 for each time point). To allow monitoring of the metabolites by analytical HPLC, the mice were injected with a higher amount of radioactivity (6–9 MBq indium-111, 30–45 MBq lutetium-177) corresponding to ∼1 nmol total peptide intravenously through a lateral tail vein. At different time points, the mice were euthanized by cervical dislocation and urine and a blood sample was collected. Liver and kidneys were excised and homogenized in 20 mM HEPES buffer pH 7.3. The amount of intact radiopeptide and the formation of metabolites was analyzed by analytical HPLC. Prior to injection into the HPLC system, all samples were treated as described for human serum and rat organ homogenate samples.

[4] = test system: A431-CCK2R/A431-mock xenografts; assay: biodistribution in A431-CCK2R/A431-mock xenografted BALB/c nude mice; format: in vivo
Protocol: (§1) Biodistribution studies evaluating the tumor uptake of the radiolabeled peptides were performed in 7- to 9-week-old female athymic BALB/c nude mice (Charles River, Sulzfeld, Germany). For the induction of tumor xenografts, 150 μL of DMEM containing 2 × 10^6 A431-CCK2R and A431-mock cells were injected subcutaneously in the right and left flank of each mouse, respectively. And 10–14 days after injection, tumors reached a medium weight of ∼0.25 g. The mice were divided into groups of four and injected intravenously via a lateral tail vein with 0.2 MBq of ^111In-labeled compound (0.02 nmol) and 0.7 and 1.5 MBq of the ^177Lu-labeled compound (0.02 and 0.15 nmol). At 4 and 12 h p.i., the mice were sacrificed and the tumors and other tissues (blood, lung, heart, muscle, spleen, intestine, liver, kidneys, stomach, and pancreas) were removed, weighed, and their radioactivity measured in the γ counter together with the rest of the body. Initial biodistribution studies were performed with the three ^177Lu-labeled CCK2R-targeting ligands at an injected peptide amount of 20 pmol for the time point of 4 h p.i. From these studies, two peptide analogues were selected to further characterize the biodistribution profile also at a later time point of 12 h p.i. and at a higher injected peptide amount of 150 pmol. Additional animal studies were performed for the ^111In-labeled conjugates. Percentage of injected activity per gram tissue (%IA/g), tumor-to-organ activity ratios, as well as whole body activity were calculated for each sample and statistical analysis using independent two-population t-test (significance level p < 0.05) was performed using Origin software. For the comparison of more than two groups, data were analyzed using one-way analysis of variance (ANOVA) Holm–Bonferroni-adjusted post hoc analysis (significance level p < 0.05) using Microsoft Excel 2010 software (Microsoft Excel 2010, Microsoft Corporation, WA).

[5] = as above; format: in vivo; settings: female, athymic BALB/c nude, mouse, iv, 20 pmol, total radioactivity, 20 pmol, 4 h p.i.
Protocol: as §1

[6] = 4 h after incubation, read-out: protein binding (%) 4 h (converted)
[7] = 24 h after incubation, read-out: protein binding (%) 24 h (converted)

Work on `CCCC[C@@H](C(=O)N[C@@H](CC(=O)O)C(=O)N[C@@H](Cc1cccc2ccccc12)C(N)=O)N(C)C(=O)[C@H](Cc1c[nH]c2ccccc12)NC(=O)CNC(=O)[C@H](Cc1ccc(O)cc1)NC(=O)[C@@H]1CCCN1C(=O)[C@@H](CCC(=O)O)NC(=O)CN1CCN(CC(=O)O)CCN(CC(=O)O)CCN(CC(=O)O)CC1` [[^111In]In-1, metal not drawn] ({DOTA}-[dE]PYGW[NMeNle]D[1Nal]-NH2) yielded a logD [1] of -2.03, a fraction unbound [2, 6] of 0.555 and a fraction unbound [2, 7] of 0.472.

`CCCC[C@@H](C(=O)N[C@@H](CC(=O)O)C(=O)N[C@@H](Cc1cccc2ccccc12)C(N)=O)N(C)C(=O)[C@H](Cc1c[nH]c2ccccc12)NC(=O)CNC(=O)[C@@H]1CCCN1C(=O)[C@H](Cc1ccc(O)cc1)NC(=O)[C@@H](CCC(=O)O)NC(=O)CN1CCN(CC(=O)O)CCN(CC(=O)O)CCN(CC(=O)O)CC1` [[^111In]In-2, metal not drawn] ({DOTA}-[dE]YPGW[NMeNle]D[1Nal]-NH2) gave a logD [1] of -1.75, a fraction unbound [2, 6] of 0.432 and a fraction unbound [2, 7] of 0.466.

For `CCCC[C@@H](C(=O)N[C@@H](CC(=O)O)C(=O)N[C@@H](Cc1cccc2ccccc12)C(N)=O)N(C)C(=O)[C@H](Cc1c[nH]c2ccccc12)NC(=O)CNC(=O)[C@@H]1CCCN1C(=O)[C@H](Cc1ccc(O)cc1)NC(=O)[C@@H](CCC(=O)O)NC(=O)CN1CCN(CC(=O)O)CCN(CC(=O)O)CCN(CC(=O)O)CC1` [[^111In]In-2] [metal not drawn] ({DOTA}-[dE]YPGW[NMeNle]D[1Nal]-NH2), the “intact radiopeptide in blood” value ([3]; 10 min p.i.) was 82.3 ± 1.8%, the “intact radiopeptide in kidneys” value ([3]; 10 min p.i.) was 30.2 ± 0.5% and the “intact radiopeptide in liver” value ([3]; 10 min p.i.) was 73.9 ± 1.2%. For the same molecule, the “intact radiopeptide in urine” value ([3]; 10 min p.i.) was 30.3 ± 5.9%.

With `CCCC[C@@H](C(=O)N[C@@H](CC(=O)O)C(=O)N[C@@H](Cc1cccc2ccccc12)C(N)=O)N(C)C(=O)[C@H](Cc1c[nH]c2ccccc12)NC(=O)[C@@H]1CCCN1C(=O)[C@H](Cc1ccc(O)cc1)NC(=O)[C@H](C)NC(=O)[C@@H](CCC(=O)O)NC(=O)CN1CCN(CC(=O)O)CCN(CC(=O)O)CCN(CC(=O)O)CC1` [[^111In]In-3, metal not drawn] ({DOTA}-[dE]AYPW[NMeNle]D[1Nal]-NH2) the logD [1] was -2.05, the fraction unbound [2, 6] was 0.588 and the fraction unbound [2, 7] was 0.54.

For `CCCC[C@@H](C(=O)N[C@@H](CC(=O)O)C(=O)N[C@@H](Cc1cccc2ccccc12)C(N)=O)N(C)C(=O)[C@H](Cc1c[nH]c2ccccc12)NC(=O)CNC(=O)[C@@H]1CCCN1C(=O)[C@H](Cc1ccc(O)cc1)NC(=O)[C@@H](CCC(=O)O)NC(=O)CN1CCN(CC(=O)O)CCN(CC(=O)O)CCN(CC(=O)O)CC1` [[^177Lu]Lu-2] [metal not drawn] ({DOTA}-[dE]YPGW[NMeNle]D[1Nal]-NH2), the “intact radiopeptide in blood” value ([3]; 60 min p.i., n = 1) was 79.1%, the “intact radiopeptide in kidneys” value ([3]; 60 min p.i., n = 1) was 11.0% and the “intact radiopeptide in liver” value ([3]; 60 min p.i., n = 1) was 74.5%. For the same molecule, the “intact radiopeptide in urine” value ([3]; 60 min p.i., n = 1) was 18.8%, the “tumor uptake in A431-CCK2R xenografts” value ([4]; 150 pmol, 4 h p.i.) was 15.26 ± 6.84 % IA/g and the tumor retention ([4]; A431-CCK2R xenografts, 12 h p.i. relative to 4 h p.i., 20 pmol) was > 60%. The “reduction of tumor uptake in A431-CCK2R xenografts” value ([4]; injected peptide amount increased to 150 pmol vs 20 pmol, 4 h p.i.) was “about 50%”.

For `CCCC[C@@H](C(=O)N[C@@H](CC(=O)O)C(=O)N[C@@H](Cc1cccc2ccccc12)C(N)=O)N(C)C(=O)[C@H](Cc1c[nH]c2ccccc12)NC(=O)[C@@H]1CCCN1C(=O)[C@H](Cc1ccc(O)cc1)NC(=O)[C@H](C)NC(=O)[C@@H](CCC(=O)O)NC(=O)CN1CCN(CC(=O)O)CCN(CC(=O)O)CCN(CC(=O)O)CC1` [[^177Lu]Lu-3, metal not drawn] ({DOTA}-[dE]AYPW[NMeNle]D[1Nal]-NH2), the “intact radiopeptide in blood” value ([3]; 60 min p.i., n = 1) was 63.5%, the “intact radiopeptide in kidneys” value ([3]; 60 min p.i., n = 1) was 7.2% and the “intact radiopeptide in liver” value ([3]; 60 min p.i., n = 1) was 35.6%. The “intact radiopeptide in urine” value ([3]; 60 min p.i., n = 1) was 20.6%, the tissue to tissue ratio at 4 h ([5]; A431-CCK2R xenograft tumor / blood, read-out: tumor-to-blood ratio) was 709 ± 470 and the tissue to tissue ratio at 4 h ([5]; A431-CCK2R xenograft tumor / kidney, read-out: tumor-to-kidney ratio) was 4.52 ± 1.41. The tissue to tissue ratio at 4 h ([5]; A431-CCK2R xenograft tumor / liver, read-out: tumor-to-liver ratio) was 58 ± 19.2, the tissue to tissue ratio at 4 h ([5]; A431-CCK2R xenograft tumor / stomach, read-out: tumor-to-stomach ratio) was 6.49 ± 1.32 and the tissue uptake at 4 h ([5]; A431-CCK2R xenograft tumor, read-out: tumor uptake in A431-CCK2R xenografts) was 28.6 ± 7.95 %ID/g. The tissue uptake at 4 h ([5]; A431-mock xenograft tumor, read-out: uptake in A431-mock xenografts) was 0.25 ± 0.06 %ID/g, the tissue uptake at 4 h ([5]; blood, read-out: uptake in blood) was 0.06 ± 0.03 %ID/g and the tissue uptake at 4 h ([5]; heart, read-out: uptake in heart) was 0.08 ± 0.01 %ID/g. The tissue uptake at 4 h ([5]; intestine, read-out: uptake in intestine) was 0.95 ± 0.23 %ID/g, the tissue uptake at 4 h ([5]; kidney, read-out: uptake in kidney) was 6.61 ± 1.75 %ID/g and the tissue uptake at 4 h ([5]; liver, read-out: uptake in liver) was 0.52 ± 0.12 %ID/g. The tissue uptake at 4 h ([5]; lung, read-out: uptake in lung) was 0.17 ± 0.05 %ID/g, the tissue uptake at 4 h ([5]; muscle, read-out: uptake in muscle) was 0.09 ± 0.05 %ID/g and the tissue uptake at 4 h ([5]; pancreas, read-out: uptake in pancreas) was 1.78 ± 0.72 %ID/g. It also gave a tissue uptake at 4 h ([5]; spleen, read-out: uptake in spleen) of 0.19 ± 0.02 %ID/g and a tissue uptake at 4 h ([5]; stomach, read-out: uptake in stomach) of 4.73 ± 2.29 %ID/g.
